IC50 and Ki data for 24 compounds are collected here from US8653100B2 (AbbVie Inc., priority 2008, dated 2014).

Where a name gives a salt, the structure may show the parent alone.

Experiment [1] concerns the target human GlyT1c (Homo sapiens (Human), UniProt P48067). Put plainly: [3H]-Glycine uptake into recombinant CHO cells expressing human GlyT1. Conditions: hGlyT1c_5_CHO cells, 200 nM [3H]-glycine. Type of experiment: cell-based. The method in brief: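 hGlyT1c-expressing CHO cells plated at 20,000 cells/well and cultured 24 h; [3H]-glycine incorporation read continuously by solid-phase scintillation for up to 3 h. IC50 from four-parameter logistic fit using the linear uptake phase between 60 and 120 min.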

Experiment [2] deals with human GlyT1c transporter (Homo sapiens (Human), UniProt P48067). The experiment in a line: Radioligand binding assay using recombinant CHO cell membranes expressing human GlyT1. Conditions: examples 88-204, radioligand not specified by footnote, read-out: radioligand binding Kiapp. The method in brief: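 Competition binding of [^3H]-(R)-NPTS (0.5 nM) to CHO membranes expressing human GlyT1c (50 μg/ml protein) in pH 7.5 Hepes/NaCl buffer with 1% DMSO, 1 h at room temperature. Non-specific binding defined with 10 μM Org24598; filtration and scintillation counting, one-site fit, Ki via Cheng-Prusoff.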
Sequence of human GlyT1c transporter (P48067 whole entry): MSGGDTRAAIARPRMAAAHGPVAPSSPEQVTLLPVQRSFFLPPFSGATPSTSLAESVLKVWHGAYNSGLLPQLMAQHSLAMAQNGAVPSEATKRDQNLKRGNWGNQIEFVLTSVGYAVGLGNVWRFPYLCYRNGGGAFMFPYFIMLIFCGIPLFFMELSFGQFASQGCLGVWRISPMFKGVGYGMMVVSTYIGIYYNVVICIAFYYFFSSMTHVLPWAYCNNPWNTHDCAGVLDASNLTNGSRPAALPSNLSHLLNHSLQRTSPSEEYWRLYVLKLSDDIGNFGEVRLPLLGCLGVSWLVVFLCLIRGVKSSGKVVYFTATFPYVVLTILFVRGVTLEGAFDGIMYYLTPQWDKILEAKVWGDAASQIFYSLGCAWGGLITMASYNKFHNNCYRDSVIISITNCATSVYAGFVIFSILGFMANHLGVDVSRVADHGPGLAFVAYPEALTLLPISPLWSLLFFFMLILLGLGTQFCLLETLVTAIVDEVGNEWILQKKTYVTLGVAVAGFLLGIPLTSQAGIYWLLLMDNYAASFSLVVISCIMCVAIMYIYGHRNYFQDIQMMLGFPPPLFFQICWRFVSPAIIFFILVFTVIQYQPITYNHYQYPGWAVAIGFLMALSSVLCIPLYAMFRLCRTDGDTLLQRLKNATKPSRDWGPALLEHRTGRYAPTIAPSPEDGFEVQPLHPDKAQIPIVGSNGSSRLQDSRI

Sequence of human GlyT1c (P48067 whole entry): as above

With `O=S(=O)(CCCOc1ccc2c(c1)C(C1(c3ccc(Cl)cc3)CCC1)NCC2)Nc1ccccc1` (stereo not drawn) [Example 112, 3-({1-[1-(4-Chlorophenyl)cyclobutyl]-1,2,3,4-tetrahydroisoquinolin-7-yl}oxy)-N-phenylpropane-1-sulfonamide hydrochloride], the IC50 (commonly the point on the concentration scale where inhibition reaches its midpoint) in experiment [1] was at most 10 µM. Moreover, the Ki in experiment [2] is at most 1 µM.
As for `O=S(=O)(Nc1ccccc1Oc1ccc2c(c1)C(C1(c3ccc(Cl)cc3)CCC1)NCC2)c1cccs1` (stereo not drawn) [Example 116, N-[2-({1-[1-(4-Chlorophenyl)cyclobutyl]-1,2,3,4-tetrahydroisoquinolin-7-yl}oxy)phenyl]thiophene-2-sulfonamide hydrochloride], the IC50 in experiment [1] was at most 100 µM. For the same compound, the Ki in experiment [2] is at most 1 µM.
For the compound `CC(C)NS(=O)(=O)CCCOc1ccc2c(c1)C(C1(c3ccc(Cl)cc3)CCC1)NCC2` (stereo not drawn) [Example 117, 3-({1-[1-(4-Chlorophenyl)cyclobutyl]-1,2,3,4-tetrahydroisoquinolin-7-yl}oxy)-N-(propan-2-yl)propane-1-sulfonamide hydrochloride], the IC50 in experiment [1] was at most 10 µM. The Ki in experiment [2] was at most 1 µM.
The corresponding values for `CC(C)(C)NS(=O)(=O)CCCOc1ccc2c(c1)C(C1(c3ccc(Cl)cc3)CCC1)NCC2` (stereo not drawn) [Example 118, N-tert-Butyl-3-({1-[1-(4-chlorophenyl)cyclobutyl]-1,2,3,4-tetrahydroisoquinolin-7-yl}oxy)propane-1-sulfonamide hydrochloride] are at most 10 µM and at most 1 µM.
As for `COc1ccccc1NS(=O)(=O)CCCOc1ccc2c(c1)C(C1(c3ccc(Cl)cc3)CCC1)NCC2` (stereo not drawn) [Example 121, 3-({1-[1-(4-Chlorophenyl)cyclobutyl]-1,2,3,4-tetrahydroisoquinolin-7-yl}oxy)-N-(2-methoxyphenyl)propane-1-sulfonamide hydrochloride], in experiment [1], the IC50 is at most 10 µM. The Ki in experiment [2] was at most 10 µM.
Consider `CC(C)(C)OC(=O)N1CCN(S(=O)(=O)CCCOc2ccc3c(c2)C(C2(c4ccc(Cl)cc4)CCC2)NCC3)CC1` (stereo not drawn) [Example 123, tert-Butyl 4-{[3-({1-[1-(4-chlorophenyl)cyclobutyl]-1,2,3,4-tetrahydroisoquinolin-7-yl}oxy)propyl]sulfonyl}piperazine-1-carboxylate], for which, in experiment [1], the IC50 is at most 100 µM. Moreover, the Ki in experiment [2] is at most 10 µM.
For `CC(C)(C)OC(=O)NCCNS(=O)(=O)CCCOc1ccc2c(c1)C(C1(c3ccc(Cl)cc3)CCC1)NCC2` (stereo not drawn) [Example 126, tert-Butyl [2-({[3-({1-[1-(4-chlorophenyl)cyclobutyl]-1,2,3,4-tetrahydroisoquinolin-7-yl}oxy)propyl]sulfonyl}amino)ethyl]carbamate], in experiment [1], the IC50 is at most 10 µM. In addition, the Ki in experiment [2] is at most 10 µM.
Take `NCCNS(=O)(=O)CCCOc1ccc2c(c1)C(C1(c3ccc(Cl)cc3)CCC1)NCC2` (stereo not drawn) [Example 130, N-(2-Aminoethyl)-3-({1-[1-(4-chlorophenyl)cyclobutyl]-1,2,3,4-tetrahydroisoquinolin-7-yl}oxy)propane-1-sulfonamide dihydrochloride]: the IC50 in experiment [1] is at most 100 µM. Also, the Ki in experiment [2] was at most 10 µM.
The corresponding values for `CN(C)CCNS(=O)(=O)CCCOc1ccc2c(c1)C(C1(c3ccc(Cl)cc3)CCC1)NCC2` (stereo not drawn) [Example 132, 3-({1-[1-(4-Chlorophenyl)cyclobutyl]-1,2,3,4-tetrahydroisoquinolin-7-yl}oxy)-N-[2-(dimethylamino)ethyl]propane-1-sulfonamide dihydrochloride] are at most 10 µM and at most 10 µM.
The like results for `O=S(=O)(CCCOc1ccc2c(c1)C(C1(c3ccc(Cl)cc3)CCC1)NCC2)N1CCNCC1` (stereo not drawn) [Example 133, 1-[1-(4-Chlorophenyl)cyclobutyl]-7-[3-(piperazin-1-ylsulfonyl)propoxy]-1,2,3,4-tetrahydroisoquinoline dihydrochloride] were, in that order, at most 10 µM and at most 10 µM.
The like results for `COCCNS(=O)(=O)CCCOc1ccc2c(c1)C(C1(c3ccc(Cl)cc3)CCC1)NCC2` (stereo not drawn) [Example 135, 3-({1-[1-(4-Chlorophenyl)cyclobutyl]-1,2,3,4-tetrahydroisoquinolin-7-yl}oxy)-N-(2-methoxyethyl)propane-1-sulfonamide hydrochloride] were, in that order, at most 100 µM and at most 10 µM.
Regarding `CCCS(=O)(=O)NCCOc1ccc2c(c1)C(C1(c3ccc(Cl)c(N)c3)CCC1)NCC2` (stereo not drawn) [Example 142, N-[2-({1-[1-(3-Amino-4-chlorophenyl)cyclobutyl]-1,2,3,4-tetrahydroisoquinolin-7-yl}oxy)ethyl]propane-1-sulfonamide dihydrochloride], in experiment [1], the IC50 was at most 0.1 µM. Also, in experiment [2], the Ki is at most 0.1 µM.
For the compound `CCCS(=O)(=O)NCCOc1ccc2c(c1)C(C(C)c1ccc(Cl)cc1)NCC2` (stereo not drawn) [Example 145, N-[2-({1-[1-(4-Chlorophenyl)ethyl]-1,2,3,4-tetrahydroisoquinolin-7-yl}oxy)ethyl]propane-1-sulfonamide hydrochloride], the half-inhibitory concentration (IC50) in experiment [1] is at most 0.1 µM. In addition, the Ki in experiment [2] is at most 0.1 µM.
On to `CC(C)(C)CS(=O)(=O)NCCOc1ccc2c(c1)C(C1(c3ccc(Cl)cc3)CCC1)NCC2` (stereo not drawn) [Example 155, N-[2-({1-[1-(4-Chlorophenyl)cyclobutyl]-1,2,3,4-tetrahydroisoquinolin-7-yl}oxy)ethyl]-2,2-dimethylpropane-1-sulfonamide hydrochloride], for which the IC50 in experiment [1] is at most 10 µM. Moreover, the Ki in experiment [2] is at most 0.1 µM.
The corresponding values for `Nc1ccc(S(=O)(=O)NCCOc2ccc3c(c2)C(C2(c4ccc(Cl)cc4)CCC2)NCC3)cn1` (stereo not drawn) [Example 165, 6-Amino-N-[2-({1-[1-(4-chlorophenyl)cyclobutyl]-1,2,3,4-tetrahydroisoquinolin-7-yl}oxy)ethyl]pyridine-3-sulfonamide] are at most 10 µM and at most 1 µM.
The corresponding values for `O=S(=O)(NCCOc1ccc2c(c1)C(C1(c3ccc(Cl)cc3)CCC1)NCC2)c1c(Cl)nc2sccn12` (stereo not drawn) [Example 167, 6-Chloro-N-[2-({1-[1-(4-Chlorophenyl)cyclobutyl]-1,2,3,4-tetrahydroisoquinolin-7-yl}oxy)ethyl]imidazo[2,1-b][1,3]thiazole-5-sulfonamide hydrochloride] are at most 10 µM and at most 1 µM.
The corresponding values for `CCCS(=O)(=O)NCCOc1ccc2c(c1)C(C(O)(c1ccc(Cl)cc1)c1ccc(Cl)cc1)NCC2` (stereo not drawn) [Example 176, N-[2-({1-[Bis(4-chlorophenyl)(hydroxy)methyl]-1,2,3,4-tetrahydroisoquinolin-7-yl}oxy)ethyl]propane-1-sulfonamide hydrochloride] are at most 10 µM and at most 10 µM.
Consider `CN(C)CCCS(=O)(=O)NCCOc1ccc2c(c1)C(C1(c3ccc(Cl)cc3)CCC1)NCC2` (stereo not drawn) [Example 181, N-[2-({1-[1-(4-Chlorophenyl)cyclobutyl]-1,2,3,4-tetrahydroisoquinolin-7-yl}oxy)ethyl]-3-(dimethylamino)propane-1-sulfonamide (2E)-but-2-enedioate], for which the IC50 in experiment [1] is at most 10 µM. Further, the Ki in experiment [2] was at most 10 µM.
On to `O=S(=O)(NCCOc1ccc2c(c1)[C@@H](C1(c3ccc(Cl)cc3)CCC1)NCC2)c1cccnc1` [Example 182, N-[2-({(1R)-1-[1-(4-Chlorophenyl)cyclobutyl]-1,2,3,4-tetrahydroisoquinolin-7-yl}oxy)ethyl]pyridine-3-sulfonamide hydrochloride], for which the IC50 in experiment [1] (hydrochloride) was at most 10 µM. Besides, the Ki in experiment [2] is at most 10 µM.
Take `CCCN1CCN(S(=O)(=O)NCCOc2ccc3c(c2)C(C2(c4ccc(Cl)cc4)CCC2)NCC3)CC1` (stereo not drawn) [Example 183, N-[2-({1-[1-(4-Chlorophenyl)cyclobutyl]-1,2,3,4-tetrahydroisoquinolin-7-yl}oxy)ethyl]-4-propylpiperazine-1-sulfonamide dihydrochloride]: the IC50 in experiment [1] is at most 10 µM. The Ki in experiment [2] was at most 10 µM.
As for `CCCNCCCS(=O)(=O)NCCOc1ccc2c(c1)C(C1(c3ccc(Cl)cc3)CCC1)NCC2` (stereo not drawn) [Example 186, N-[2-({1-[1-(4-Chlorophenyl)cyclobutyl]-1,2,3,4-tetrahydroisoquinolin-7-yl}oxy)ethyl]-3-(propylamino)propane-1-sulfonamide (2E)-but-2-enedioate], in experiment [1], the IC50 is at most 10 µM. For the same compound, in experiment [2], the Ki was at most 10 µM.
As for `CCNCCCS(=O)(=O)NCCOc1ccc2c(c1)C(C1(c3ccc(Cl)cc3)CCC1)NCC2` (stereo not drawn) [Example 187, N-[2-({1-[1-(4-Chlorophenyl)cyclobutyl]-1,2,3,4-tetrahydroisoquinolin-7-yl}oxy)ethyl]-3-(ethylamino)propane-1-sulfonamide], in experiment [1], the IC50 is at most 10 µM. For the same compound, the Ki in experiment [2] is at most 10 µM.
On to `CCN(CC)CCCS(=O)(=O)NCCOc1ccc2c(c1)C(C1(c3ccc(Cl)cc3)CCC1)NCC2` (stereo not drawn) [Example 194, N-[2-({1-[1-(4-Chlorophenyl)cyclobutyl]-1,2,3,4-tetrahydroisoquinolin-7-yl}oxy)ethyl]-3-(diethylamino)propane-1-sulfonamide], for which the IC50 in experiment [1] was at most 10 µM. The Ki in experiment [2] is at most 10 µM.
With `CC(C)NCCCS(=O)(=O)NCCOc1ccc2c(c1)C(C1(c3ccc(Cl)cc3)CCC1)NCC2` (stereo not drawn) [Example 197, N-[2-({1-[1-(4-Chlorophenyl)cyclobutyl]-1,2,3,4-tetrahydroisoquinolin-7-yl}oxy)ethyl]-3-(propan-2-ylamino)propane-1-sulfonamide (2E)-but-2-enedioate], the IC50 in experiment [1] is at most 100 µM. Also, in experiment [2], the Ki is at most 10 µM.
